Patent US6979686B1, “Substituted pyrazoles as p38 kinase inhibitors” (Pharmacia Corporation, priority 2001, dated 2005)
Read-outs that look alike come from different tables or passages of the source. Blank lines part the entries; values can stand above or below the molecule they belong to.

Experiments:
[1] = test system: TNF-α, U937 human histiocytic lymphoma cell line; assay: LPS stimulation of TNF production by U937 cells; type: cell-based; conditions: for IC50: read-out: U937 Cell IC50; for inhibition at 1 µM: U-937, @ 1.0 uM
Outline: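 U937 cells differentiated 24 h with 20 ng/ml PMA, rested 24-48 h, used at 2 million cells/ml. Compounds in 0.1% DMSO final; LPS (E. coli, 100 ng/ml final) stimulation for 4 h at 37° C. Released TNF-α measured by ELISA; IC50 (μM).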

[2] = target: T1, human p38 kinase alpha (Homo sapiens, UniProt Q16539); assay: p38 kinase in vitro assay, phosphorylation of biotinylated PHAS-I with 32P-ATP; type: biochemical; conditions: for IC50: read-out: P38 alpha kinase IC50; for P38 alpha kinase % inhib @ conc. / P38 alpha kinase IC50, uM or % inhib @ conc. (uM): % inhib: @ 10.0 uM; for inhibition at 1 µM: read-out: P38 alpha kinase % inhib @ conc.
T1 construct: GST (N, cleaved yes); made in house; host or cells: E. coli DH10B
T1 sequence (Q16539 whole entry): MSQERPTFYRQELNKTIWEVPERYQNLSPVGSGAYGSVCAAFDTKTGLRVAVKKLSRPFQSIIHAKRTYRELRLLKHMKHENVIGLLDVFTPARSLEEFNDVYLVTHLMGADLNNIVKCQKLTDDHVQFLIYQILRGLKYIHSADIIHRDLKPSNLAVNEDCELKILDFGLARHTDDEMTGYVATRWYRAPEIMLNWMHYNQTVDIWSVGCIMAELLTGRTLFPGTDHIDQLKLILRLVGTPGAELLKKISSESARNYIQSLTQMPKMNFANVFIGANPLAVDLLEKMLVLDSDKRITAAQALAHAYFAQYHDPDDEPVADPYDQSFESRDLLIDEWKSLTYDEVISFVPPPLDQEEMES

[3] = Homo sapiens, U-937, TNF production, human U937 cells stimulated with LPS
[4] = @ 10.0 uM, TNF production, LPS-stimulated U937 cells
[5] = in vitro P38-alpha kinase inhibition
[6] = Homo sapiens, TNF production, U937 cells stimulated with LPS, read-out: U937 Cell % inhib @ conc.
[7] = Homo sapiens, TNF production, LPS-stimulated U937 cells, read-out: U937 Cell % inhib @ conc.
[8] = @ 10.0 uM, TNF production, U937 cells stimulated with LPS

IC50 [1, 3]: > 1 µM | IC50 ([2]; in vitro P38-alpha kinase): 1.29 µM
SMILES: O=S(=O)(c1ccc(F)c(F)c1)N1CCC(c2[nH]nc(-c3ccc(F)cc3)c2-c2ccncc2)CC1 [Example B-1456]

P38 alpha kinase % inhib @ conc. [2]: 77.0% @
SMILES: CCOC(=O)C(Cc1ccccc1)NC(=O)Cn1nc(-c2ccc(F)cc2)c(-c2ccncc2)c1C (centres unmarked) [Example B-2351]
U937 Cell % inhib @ conc. [1, 4]: 1.0% @

IC50 ([1]; Homo sapiens, U-937, TNF production in human U937 cells stimulated with LPS): 1.7 µM | IC50 [2, 5]: 0.36 µM
SMILES: CC(NS(C)(=O)=O)c1[nH]nc(-c2ccc(F)cc2)c1-c1ccncc1 (centres unmarked) [Example B-0573]

IC50 ([2]; in vitro P38-alpha kinase): 0.64 µM
SMILES: CC(=O)NCCNC(=O)NCCCc1[nH]nc(-c2ccc(F)cc2)c1-c1ccncc1 [Example B-1305]
U937 Cell % inhib @ conc. ([1]; @ 1.0 uM, TNF production, LPS-stimulated U937 cells): 9.0% @

IC50 [2, 5]: < 0.1 µM
SMILES: O=S(=O)(NCCc1[nH]nc(-c2ccc(F)cc2)c1-c1ccncc1)c1cccc(Cl)c1Cl [Example B-1073]
inhibition at 1 µM [1, 6]: 21%

IC50 ([2]; in vitro P38-alpha kinase): 1.43 µM
SMILES: O=S(=O)(c1cccc(Cl)c1Cl)N1CCC(c2[nH]nc(-c3ccc(F)cc3)c2-c2ccncc2)CC1 [Example B-1448]
inhibition at 1 µM [1, 7]: 22%

P38 alpha kinase % inhib @ conc. (uM) ([2]; @ 1.0 uM): 58.0% @
SMILES: O=S(=O)(C=Cc1ccccc1)NCCc1[nH]nc(-c2ccc(F)cc2)c1-c1ccncc1 [Example B-1016]
U937 Cell % inhib @ conc. (uM) ([1]; @ 1.0 uM, TNF production, U937 cells stimulated with LPS): 10.0% @

IC50 ([2]; in vitro P38-alpha kinase): 0.77 µM
SMILES: COc1ccc(Br)cc1S(=O)(=O)N1CCC(c2[nH]nc(-c3ccc(F)cc3)c2-c2ccncc2)CC1 [Example B-1446]
inhibition at 1 µM [1, 7]: 36%

IC50 [2, 5]: 0.5 µM
SMILES: O=C(NCCc1[nH]nc(-c2ccc(F)cc2)c1-c1ccncc1)c1cc(F)cc(F)c1 [Example B-1130]
inhibition at 1 µM [1, 6]: 29%

inhibition at 1 µM ([2]; @ 1.0 uM): 71%
SMILES: O=C(NCc1[nH]nc(-c2ccc(F)cc2)c1-c1ccncc1)[C@@H]1C[C@@H]1c1ccccc1 [Example B-0002]
inhibition at 10 µM ([1]; Homo sapiens, U-937, @ 10.0 uM, TNF production, U937 cells stimulated with LPS, read-out: U937 Cell % inhib @ conc.): 28%

U937 Cell IC50, uM or % inhib @ conc. (uM): % inhib [1, 8]: 7.0% @ | P38 alpha kinase IC50, uM or % inhib @ conc. (uM): % inhib [2]: 89.0% @
SMILES: Cc1cccc(OC(=O)c2ccc(NC(=O)Cn3nc(-c4ccc(F)cc4)c(-c4ccncc4)c3C)cc2)c1 [Example B-2444]

IC50 ([2]; in vitro P38-alpha kinase): 0.026 µM
SMILES: O=C(NCCCc1[nH]nc(-c2ccc(F)cc2)c1-c1ccncc1)NCC1CC1 [Example B-1316]
inhibition at 1 µM [1, 7]: 36%

IC50 [2, 5]: 0.87 µM
SMILES: CNC(=O)CCC(NS(=O)(=O)c1ccccc1F)c1[nH]nc(-c2ccc(F)cc2)c1-c1ccncc1 (centres unmarked) [Example B-0879]
inhibition at 1 µM [1, 6]: 1%

IC50 ([2]; in vitro P38-alpha kinase): 0.14 µM
SMILES: O=S(=O)(NCCCc1[nH]nc(-c2ccc(F)cc2)c1-c1ccncc1)c1cccc(Cl)c1Cl [Example B-1250]
inhibition at 1 µM [1, 7]: 18%

P38 alpha kinase % inhib @ conc. [2]: 65.0% @
SMILES: Cc1c(-c2ccncc2)c(-c2ccc(F)cc2)nn1CC(=O)NC(C)Cc1c[nH]c2ccccc12 (centres unmarked) [Example B-2328]
U937 Cell % inhib @ conc. [1, 4]: 28.0% @

U937 Cell IC50, uM or % inhib @ conc. (uM): % inhib [1, 8]: 18.0% @ | P38 alpha kinase IC50, uM or % inhib @ conc. (uM): % inhib [2]: 90.0% @
SMILES: Cc1c(-c2ccncc2)c(-c2ccc(F)cc2)nn1CC(=O)Nc1ccccc1Sc1ccc([N+](=O)[O-])cn1 [Example B-2457]

U937 Cell IC50, uM or % inhib @ conc. (uM): % inhib [1, 8]: 22.0% @ | P38 alpha kinase IC50, uM or % inhib @ conc. (uM): % inhib [2]: 83.0% @
SMILES: Cc1c(-c2ccncc2)c(-c2ccc(F)cc2)nn1CC(=O)N(CC1CC1)C(C)Cc1ccc(Cl)cc1 (centres unmarked) [Example B-2397]

IC50 [1, 3]: 8.24 µM | inhibition at 1 µM ([2]; @ 1.0 uM): 92%
SMILES: COc1ccc(CC(=O)NCc2[nH]nc(-c3ccc(F)cc3)c2-c2ccncc2)cc1 [Example B-0036]

IC50 [1, 3]: 0.25 µM | IC50 ([2]; in vitro P38-alpha kinase): < 0.1 µM
SMILES: O=C(c1ccccn1)N1CCC(c2[nH]nc(-c3ccc(F)cc3)c2-c2ccncc2)CC1 [Example B-1386]

IC50 [2, 5]: 0.03 µM
SMILES: Cc1c(Cl)cccc1S(=O)(=O)NCCc1[nH]nc(-c2ccc(F)cc2)c1-c1ccncc1 [Example B-1075]
inhibition at 1 µM [1, 6]: 29%

IC50 [1, 3]: > 1 µM | IC50 [2, 5]: 3.46 µM
SMILES: COc1ccc(CC(=O)NC(Cc2ccccc2)c2[nH]nc(-c3ccc(F)cc3)c2-c2ccncc2)cc1 (centres unmarked) [Example B-0816]

IC50 [2, 5]: 0.19 µM
SMILES: O=S(=O)(NCCc1[nH]nc(-c2ccc(F)cc2)c1-c1ccncc1)c1cc(Cl)c(Cl)s1 [Example B-1080]
inhibition at 1 µM [1, 6]: 28%

IC50 [1, 3]: 11 µM | inhibition at 1 µM ([2]; @ 1.0 uM): 94%
SMILES: CC(C)=CC(=O)NCc1[nH]nc(-c2ccc(F)cc2)c1-c1ccncc1 [Example B-0027]

IC50 ([2]; in vitro P38-alpha kinase): 0.6 µM
SMILES: O=S(=O)(c1ccc(F)cc1)N1CCC(c2[nH]nc(-c3ccc(F)cc3)c2-c2ccncc2)CC1 [Example B-1470]
inhibition at 1 µM [1, 7]: 28%

U937 Cell IC50, uM or % inhib @ conc. (uM): % inhib [1, 8]: 36.0% @ | P38 alpha kinase IC50, uM or % inhib @ conc. (uM): % inhib [2]: 83.0% @
SMILES: CCOC(=O)COc1cccc(NC(=O)Cn2nc(-c3ccc(F)cc3)c(-c3ccncc3)c2C)c1 [Example B-2458]
